Source: patent US12508300B2, “Acylated GLP-1 derivative” (Sciwind Biosciences Co., Ltd., priority 2019, dated 2025)
Read-outs that look alike come from different tables or passages of the source. *1 amine or outer side, *2 acyl side, *3 side chain or, on linkers, in order; H or OH if unused. Where a SMILES comes first, the peptide text is derived from it. Where no end group is shown, it is not given here. Side-chain parts run from the residue outwards. The star is where a group is joined. C18 diacid = O=C(O)CCCCCCCCCCCCCCCCC(=O)*; γGlu = O=C(O)[C@H](CCC(=O)[*:2])N[*:1]; AEEA = NCCOCCOCC(=O)O

Tests used:
db/db mice = assay: Fasting blood glucose after single injection in type II diabetic db/db mice (FIG. 1); assay type: in vivo; conditions: 0.05 mg/kg s.c. single, day 2
Experimental: The dosage is 0.05 mg/kg for each, and the administration time is set as 0 h. Fasting blood glucose is measured after fasting for 6-8 h every day, and the fasting blood glucose after administration is measured every day until the fasting blood glucose value of each animal of the test group recovers to the value measured before administration. The blood glucose value measured before administration is called the basal blood glucose value, and is set as 0. Change of the fasting blood glucose (Δ: delta)=Blood glucose value after administration-Basal blood glucose value before administration.

GLP1R = biological target: T1, GLP1R (Homo sapiens, UniProt P43220); assay: In vitro activity determination in HEK293/CRE-Luc/GLP1R cells (luciferase reporter); assay type: cell-based
T1 construct: expressed in transfected cells; host or cells: HEK293
Experimental: Based on the fact that GLP-1 may bind to the receptor on the cell membrane, the HEK293/CRE-Luc/GLPIR cell line is constructed, the CAMP response elements (CRE) are activated through a series of signal transduction, the expression of downstream luciferase is initiated, and the amount of its expression is positively correlated with the biological activity of GLP-1. After adding the luciferase substrate, the chemiluminescence assay is performed to determine the luminous intensity, thereby determining the biological activity of GLP-1.
96-well cell culture plate (white and opaque), DMEM medium (GIBCO), 0.05% TRYPSIN-EDTA (GIBCO), fetal bovine serum (GIBCO), G418, hygromycin B, Bright-Glo™ Luciferase Assay System Kit (Promega), and HEK293/CRE-luc/GLP1R cells.
(1) Cell preparation: the cells are cultured until they grow vigorously and reach a sufficient quantity, discarding the culture medium in the culture bottle, adding 3 ml of Versene solution and shaking once; then adding 2 ml of 0.05% TRYPSIN-EDTA digestion solution, covering the bottle and standing for 1 minute, and then adding 6 ml of the assay medium to quench the digestion; after centrifugation at 1000 r/min for 3 min, the supernatant is discarded, and the cells are resuspended in 5 ml of assay medium and counted on a hemacytometer. The cell density is adjusted to an appropriate range for later use by using DMEM assay medium.
(2) Sample preparation: the derivatives of different GLP-1 analogues in Table 1 are diluted to 20 ng/ml with the assay medium, then gradient diluted into 8 concentrations in 96-well plates, and using the assay medium instead of the sample as the cell blank control. 2 duplicate wells are made for each dilution concentration.
(3) Culturing with addition of the samples: the prepared solutions of the control and test samples are transferred to a 96-well cell culture plate (white board), adding 50 μl of the solution to each well; then adding the prepared cell suspension, adding 50 μl of the suspension to each well; and then incubating for a certain period of time under the conditions of 37° C. and 5% CO2.
(4) Chemiluminescence assay: substrate is added, then taking out the 96-well cell culture plate, adding 100 μl of Bright Glo reagent to each well, and leaving in the dark for 3 min.
(5) Reading: determination is performed with a chemiluminescence microplate reader SpectraMax L, then reading the plate within 30 min, and recording the determined results.

CD-1 mice = assay type: in vivo; conditions: 0.15 mg/kg s.c.; for Inhibition rate (blood glucose): Table 5 (second experiment), CD-1 mice; for glucose-lowing effects (comparison in words, Tables 4 and 5): normal mice
Experimental: Twenty-eight healthy female CD-1 mice aged 4-6 weeks are selected and divided into 4 groups, and they are injected subcutaneously with M4, M5, M7 and M0 at a dose of 0.15 mg/kg body weight.

RIN-m5F cells = assay: In vitro activity determination in RIN-m5F cells (cAMP assay kit); assay type: cell-based
Experimental: RIN-m5F cells with good culturing status are selected. Cells are then collected, counted, and prepared into a cell suspension of 1×10^5 cells/ml with RPMI1640 basal medium. The cell suspension is inoculated in a 96-well cell culture plate, 100 μl per well, then incubating overnight at 37° C. and 5% CO2.
The prepared cell plate is taken out, then discarding the medium, and blotting it dry on the filter paper. The sample solutions are transferred correspondingly into the cell plate, 40 μl/well; treating with the lid open for 15 min at 37° C. and 5% CO2. The cell culture plate is taken out from the incubator, then adding 10 μl of CD solution (cAMP assay kit, Promega) to each well, keeping the cell plate at 22-25° C., and shaking horizontally at 500 rpm for 20 min. 50 μl of KG solution (cAMP assay kit, Promega) is added to each well, then shaking horizontally at 22° C.-25° C., 500 rpm and avoiding light for 10 min. The chemiluminescence value is read by using the Molecular Devices SpectraMax L chemiluminescence apparatus, completing the measurement in 30 min. EC50 of a sample is calculated by using the four-parameter regression in softmax Pro software.

ICR mice = assay type: in vivo; design: G-AUC: unit not given here
Experimental: 20% glucose is intragastrically administered every day according to the time schedule of 4 h, 1 d, 2 d, 3 d, 4 d, and 5 d, at a dose of 2 g/kg body weight, and fasting for 6 hours before administering the glucose; and blood is respectively collected from the tip of the tail at 0 h, 0.5 h, 1 h and 2 h after giving the 20% glucose, then measuring the blood glucose value in real time by using Roche blood glucose test paper.

T1 sequence (P43220 24-463, species assumed): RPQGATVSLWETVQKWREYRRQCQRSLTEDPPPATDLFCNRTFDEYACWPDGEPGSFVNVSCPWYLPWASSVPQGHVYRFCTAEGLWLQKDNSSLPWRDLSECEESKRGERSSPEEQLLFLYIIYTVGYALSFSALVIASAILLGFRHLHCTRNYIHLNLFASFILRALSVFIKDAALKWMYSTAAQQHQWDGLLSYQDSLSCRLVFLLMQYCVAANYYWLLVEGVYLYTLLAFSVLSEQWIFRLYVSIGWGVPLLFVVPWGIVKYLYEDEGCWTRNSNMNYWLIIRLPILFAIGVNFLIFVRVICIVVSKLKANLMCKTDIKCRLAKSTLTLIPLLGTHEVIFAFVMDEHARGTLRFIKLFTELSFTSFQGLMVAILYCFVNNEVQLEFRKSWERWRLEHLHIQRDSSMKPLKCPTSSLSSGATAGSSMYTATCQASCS

Molecule	Inhibition rate (blood glucose) (CD-1 mice; 6 h) [%]	Inhibition rate (blood glucose) (CD-1 mice; 30 h) [%]	Inhibition rate (blood glucose) (CD-1 mice; 54 h) [%]	Inhibition rate (blood glucose) (CD-1 mice; 78 h) [%]	Inhibition rate (blood glucose) (CD-1 mice; 102 h) [%]	glucose-lowing effects (comparison in words, Tables 4 and 5) (CD-1 mice)	in vitro activities (comparison in words) (RIN-m5F cells)	G-AUC (ICR mice; 0 h (before administration))	G-AUC (ICR mice; 0.15 mg/kg s.c. single, 4 h)	Inhibition rate (blood glucose) (ICR mice; 0.15 mg/kg s.c. single, 4 h) [%]	G-AUC (ICR mice; 0.15 mg/kg s.c. single, 1 d)	Inhibition rate (blood glucose) (ICR mice; 0.15 mg/kg s.c. single, 1 d) [%]	G-AUC (ICR mice; 0.15 mg/kg s.c. single, 2 d)	Inhibition rate (blood glucose) (ICR mice; 0.15 mg/kg s.c. single, 2 d) [%]	G-AUC (ICR mice; 0.15 mg/kg s.c. single, 3 d)	Inhibition rate (blood glucose) (ICR mice; 0.15 mg/kg s.c. single, 3 d) [%]	G-AUC (ICR mice; 0.15 mg/kg s.c. single, 4 d)	Inhibition rate (blood glucose) (ICR mice; 0.15 mg/kg s.c. single, 4 d) [%]	G-AUC (ICR mice; 0.15 mg/kg s.c. single, 5 d)	Inhibition rate (blood glucose) (ICR mice; 0.15 mg/kg s.c. single, 5 d) [%]	other results
CC[C@H](C)[C@H](NC(=O)[C@H](Cc1ccccc1)NC(=O)[C@H](CCC(=O)O)NC(=O)[C@H](CCCNC(=N)N)NC(=O)[C@H](C)NC(=O)[C@H](C)NC(=O)[C@H](CCC(N)=O)NC(=O)[C@H](CCC(=O)O)NC(=O)[C@H](CCC(=O)O)NC(=O)[C@H](CC(C)C)NC(=O)[C@H](Cc1ccc(O)cc1)NC(=O)[C@H](CO)NC(=O)[C@H](CO)NC(=O)[C@@H](NC(=O)[C@H](CC(=O)O)NC(=O)[C@H](CO)NC(=O)[C@@H](NC(=O)[C@H](Cc1ccccc1)NC(=O)[C@@H](NC(=O)CNC(=O)[C@H](CCC(=O)O)NC(=O)[C@H](CO)NC(=O)[C@@H](N)Cc1c[nH]cn1)[C@@H](C)O)[C@@H](C)O)C(C)C)C(=O)N[C@@H](CCCCNC(=O)COCCOCCNC(=O)COCCOCCNC(=O)CC[C@H](NC(=O)CCCCCCCCCCCCCCCCC(=O)O)C(=O)O)C(=O)N[C@@H](Cc1c[nH]c2ccccc12)C(=O)N[C@@H](CC(C)C)C(=O)N[C@H](C(=O)N[C@@H](CCCNC(=N)N)C(=O)NCC(=O)N[C@@H](CCCNC(=N)N)C(=O)NCC(=O)O)C(C)C [M17, N-ε^30-[2-(2-[2-(2-[2-(2-[4-(17-carboxyheptadecanoylamino)-4(s)-carboxybutyrylamino]ethoxy)ethoxy]acetylamino)ethoxy]ethoxy)acetyl](Ser^8Glu^22Lys^30Arg^26,34-GLP-1(7-37)) peptide] (H-HSEGTFTSDVSSYLEEQAAREFIK([AEEA-AEEA-γGlu-C18 diacid])WLVRGRG-OH; N-terminus and C-terminus assumed)																					glucose-lowing effect compared with Semaglutide (FIG. 1) (db/db mice): lower than that of Semaglutide; in vitro activities (comparison in words) (GLP1R): comparable
N-ε^34-[2-(2-[2-(2-[2-(2-[4-(17-carboxyheptadecanoylamino)-4(s)-carboxybutyrylamino]ethoxy)ethoxy]acetylamino)ethoxy]ethoxy)acetyl](Val^8Glu^22 Arg^26Lys^34-GLP-1(7-37)) peptide (HVEGTFTSDVSSYLEEQAAREFIAWLVK([AEEA-AEEA-γGlu-C18 diacid])GRG) [M5]	29.59	39.47	30.11	27.07	15.38	comparable	comparable	16.3 ± 2.5	11.5 ± 1.0	29.59	9.9 ± 0.7	39.47	11.4 ± 1.3	30.11	11.9 ± 2.0	27.07	13.8 ± 1.9	15.38	14.4 ± 2.2	11.66	
N-ε^37-[2-(2-[2-(2-[2-(2-[4-(17-carboxyheptadecanoylamino)-4(s)-carboxybutyrylamino]ethoxy)ethoxy]acetylamino)ethoxy]ethoxy)acetyl](Val^8Glu^22Arg^26,34Lys^37-GLP-1 (7-37)) peptide (HVEGTFTSDVSSYLEEQAAREFIAWLVRGRK([AEEA-AEEA-γGlu-C18 diacid])) [M7]	27.22	38.82	22.56	22.48	11.60	comparable	comparable	16.3 ± 2.7	11.8 ± 1.4	27.22	10.0 ± 1.6	38.82	12.6 ± 1.5	22.56	12.6 ± 0.7	22.48	14.4 ± 1.1	11.60	15.2 ± 1.0	6.76	
